{
  "source": "patent US20160367490A1",
  "about": "“MULTI-LAYER TOPICALLY-APPLIED ARTICLE FOR PROVIDING A BENEFIT TO SKIN” (Johnson & Johnson Consumer Inc., priority 2015, published 2016)",
  "assay": "Franz cell skin delivery of hexylresorcinol (HPLC)",
  "format": "in vitro ADME",
  "details": "Franz cells, n=4, FIG. 3",
  "from_the_text": "Wash Franz cells with ethanol 70%, water and receptor solution (1×PBS, phosphate buffered saline).\nMeasure skin thickness and electrical resistance\nMount the tissue on Franz cells (n=4).\nOnce equilibrated, make sure there isn't excess moisture on the surface of the tissue (SC) by dabbing the skin surface with Kimwipes.\nCarefully remove the backing on the film and place it on the donor area with a light pressure (5 times tap on skin surface); the adhesive side is in touch with skin.\nMount the donor chamber and leave it overnight\nNext morning (After 16 h time point), take a sample (300 uL) (Oh), replace with fresh 1×PBS.\nAdd 100 uL 1×PBS to the donor chamber, let it sit for 30 sec, remove it using a plastic pipet moving around the edge of the donor. Repeat this cycle 5 times. Pool these 1×PBS solution and analyze by HPLC\nRemove the donor chamber with the tissue still mounted on the Franz cells. Use a cotton swab to take out all the remained liquid on skin. Extract drug from this swab by shaking at 100 rpm overnight in 2 mL ethanol: Water (50:50 v/v).\nPut the donor chamber back. After every 2 hours (2,4,6 h), take sample (300 uL) and replace with fresh receptor solution.\nAt 22 h, remove the donor chamber, remove skin from cells, put skin on sheets of paper and do tape stripping with 2 tapes to remove the excessive drug on skin surface. Put these 2 tapes in a well in 6-well plate for extraction. […]",
  "data": [
    {"smiles": "CCCCCCCC/C=C\\CCCCCCCC(=O)OCC(O)CO", "note": "(stereo not shown) [Monumuls, glycerol oleate]", "values": [
      {"measurement": "delivery of the hexylresorcinol compared to Example 16C (no emulsifier)", "result": "greatly enhanced"}
    ]}
  ]
}
